Patent US20050059645A1, “Methods for the treatment of male and female sexual dysfunction” (priority 2003, published 2005)
Read-outs that look alike come from different tables or passages of the source.

Columns and labels:
[1] = cited from earlier work
[2] = estradiol itself, postmenopausal volunteer; cited from earlier work
LH = assay: Plasma LH by radioimmunoassay in ovariectomized female rats; format: in vivo, rat; conditions: 0.003, 0.01 and 0.03 mg/kg i.v. daily for 5 days
Protocol: (§1) After recovery from surgery, ovariectomized female rats were divided into four groups and treated once a day for five days intravenously, via a bolus injection through the tail vein, as follows: (1) control, 27% HPβCD solution; (2) 0.003 mg/kg E2-CDS dissolved in 27% HPβCD solution; (3) 0.01 mg/kg E2-CDS dissolved in 27% HPβCD solution; and (4) 0.03 mg/kg E2-CDS dissolved in 27% HPβCD solution. A minimal number of ovariectomized (8 to 12) females were used per group. Intravenous treatments either with E2-CDS or HPβCD (controls) were carried out daily for 5 days beginning 2 days prior to the first day of behavior observations, in a volume of 0.05 ml/100 g body weight.
An experienced and active male rat was placed in the arena 5 minutes prior to the female. […] The lordosis quotient (LQ) expresses the estrogen effect on sexual receptivity and was calculated as follows: LQ=100×number of lordoses/10 mounts The observation of the sexual behavior of each female was carried out, in the case of E2-CDS, every day for 22 days; in the case of EB, investigations were carried out every day for 10 days. […] Citrated blood samples were taken by retro-orbital sinus puncture under light ether anesthesia. […] Plasma LH concentrations from individual samples were measured by double antibody radioimmunoassay kits obtained from Amersham Pharmacia Biotech, Rome, Italy. […]

castrated male rats = conditions: cited from earlier work
[3] = tested on: ovariectomized female rats; assay: Lordosis behavior test (lordosis quotient) in ovariectomized female rats; format: in vivo, rat
Protocol: Thus, lordosis was selected as an indicator of restoration of female sexual function in ovariectomized female rats and an appropriate indicator for alleviating symptoms of female sexual dysfunction.
Adult female Sprague Dawley rats (220-250 g) from Charles River Hungary Ltd., Godollo, Hungary, were used. Animals were kept in community cages (4 animals/cage) in a climate-controlled room (23±2° C., 50-60% humidity), with a 14 hour light, 10 hour dark cycle of artificial lighting, using reversed light/dark cycle. Food and water were available ad libitum.
After a minimum five-day acclimatization period, animals were ovariectomized under ether anesthesia, then were left to recover for 3 weeks before testing (reconvalescence). All animals were treated in accordance with the guidelines of the European Communities Council Directive (86/609/EEC) and studies were permitted by the Institutional Animal Care Commission.
Estradiol benzoate and progesterone were obtained from Sigma Chemical Co. Inc., Budapest, Hungary. […] E2-CDS as a 3% complex with HPβCD (E2-CDS-CD) was dissolved in distilled water and diluted with 27% HPβCD solution. E2-CDS-CD was synthesized by Alchem Laboratories Corporation, Alachua, Fla., US.
as §1
The behavior test was conducted in a plexiglass observation cage during the dark cycle. During behavioral observations, only a dim red light was on.
An experienced and active male rat was placed in the arena 5 minutes prior to the female. […] The lordosis quotient (LQ) expresses the estrogen effect on sexual receptivity and was calculated as follows: LQ=100×number of lordoses/10 mounts The observation of the sexual behavior of each female was carried out, in the case of E2-CDS, every day for 22 days; in the case of EB, investigations were carried out every day for 10 days. […] Citrated blood samples were taken by retro-orbital sinus puncture under light ether anesthesia. The samples were stored at 4° C. for one hour, then centrifuged at 1000 g for 10 minutes. Plasma was separated and stored at −80° C. until assayed. Plasma LH concentrations from individual samples were measured by double antibody radioimmunoassay kits obtained from Amersham Pharmacia Biotech, Rome, Italy. […] The limit of detection was 15 pg/ml.
Behavioral changes were analyzed using the Mann-Whitney U test (Siegel, Nonparametric Statistics for the Behavioral Sciences, New York; McGraw-Hill Book Company, Inc., 1956). The Fisher exact test was used for percentage comparisons (Zar, Biostatistical Analysis, Prentice Hall, Inc., Englewood Cliffs, N.J., 1974). Serum LH data were analyzed for each time and treatment group by analysis of variance (ANOVA) followed by Bonferroni posthoc test.

[4] = 0.01 mg/kg i.v. once a day for 5 days
[5] = 0.03 mg/kg i.v. once a day for 5 days

C[C@]12CC[C@H]3[C@@H](CCC4=CC(=O)CC[C@@]43C)[C@@H]1CC[C@@H]2O [testosterone]
estradiol formed (of recovered steroids) ([1]; amygdala (Michael 1986)): 64% | estradiol formed (of recovered steroids) ([1]; hypothalamus (Michael 1986)): 61% | radioactivity reported to be estradiol ([1]; hypothalamus, preoptic area and amygdala (Bonsall 1983)): ≥ 50% | estradiol formed (of recovered steroids) ([1]; preoptic area (Michael 1986)): 43%

C[C@]12CC[C@@H]3c4ccc(O)cc4CC[C@H]3[C@@H]1CC[C@@H]2O [estradiol]
initial serum estradiol level [2]: too high to calculate with the standard curve

C[C@]12CC[C@@H]3c4ccc(OC(=O)c5ccccc5)cc4CC[C@H]3[C@@H]1CC[C@@H]2O [estradiol benzoate]
plasma LH levels, effect (LH): none of the tested dosages of estradiol benzoate gave statistically significant LH suppression | masculine sexual behavior (castrated male rats; 10 μg/day systemically for 9 to 11 days (Pfaff 1970)): increased mounting, intromissions and ano-genital sniffing and reduced mounting latency | ejaculations (castrated male rats; 100 μg/day for 24 to 28 days (Sodersten 1973)): less affected by estradiol benzoate then by testosterone propionate | mounts and intromissions (castrated male rats; 100 μg/day for 24 to 28 days, rats castrated 6 weeks previously (Sodersten 1973)): equivalent to those observed following similar treatment with testosterone propionate | lordosis quotient, effect ([3]; 0.003 mg/kg i.v. once a day for 5 days): slightly enhanced the lordosis quotient, but these effects were not statistically significant | LQ increase compared to E2-CDS [3, 4]: about 3 times less | lordosis quotient LQ, effect [3, 4]: slightly increased the LQ from day 3 to day 10 | statistical significance of LQ increase [3, 4]: not statistically significant | LQ value relative to E2-CDS [3, 5]: about three times lower | duration of LQ enhancement [3, 5]: from day 3 to day 8 | lordosis quotient LQ, effect [3, 5]: significantly enhanced
